Source: the supplement of paper PMC10307832

What was measured:
Assay in all cases: relative viability (nuclei count vs DMSO), 5 days (fraction); higher = more cells survive
[1] = compound: C1=CC=C(C(=C1)C2=CC=C(C=C2)C3=CSC4=C3C(=C(C(=O)N4)C#N)O)O + N=C(N)NC(=N)NCCc1ccccc1 [Phenformin] (partner 250 µM)
Outline: (§1)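 Lung cancer cell lines in 1536-well plates got either a single drug or a fixed anchor-drug dose together with five library-drug doses (not always all listed) in √10 steps, by pin tool, on the day after seeding. Nuclei were counted after 5 days, and relative viability is the treated-to-vehicle ratio of nuclei counts. Values are medians of duplicate plates.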

TGX 221 + Lapatinib = compound: CC1=CN2C(=O)C=C(N=C2C(=C1)C(C)NC3=CC=CC=C3)N4CCOCC4 [TGX 221] + CS(=O)(=O)CCNCc1ccc(-c2ccc3ncnc(Nc4ccc(OCc5cccc(F)c5)c(Cl)c4)c3c2)o1 [Lapatinib] (partner 2 µM)
Outline: as §1

[2] = compound: O=C(CCCCCCNC(=O)c1cnc(N(c2ccccc2)c2ccccc2)nc1)NO [Ricolinostat] + N=C(N)NC(=N)NCCc1ccccc1 [Phenformin] (partner 250 µM)
Outline: as §1

Ricolinostat + Olaparib = compound: O=C(CCCCCCNC(=O)c1cnc(N(c2ccccc2)c2ccccc2)nc1)NO [Ricolinostat] + O=C(c1cc(Cc2n[nH]c(=O)c3ccccc23)ccc1F)N1CCN(C(=O)C2CC2)CC1 [Olaparib] (partner 8 µM)
Outline: as §1

NCI-H1395
relative viability ([1]; first compound 0.08 µM): 0.41
relative viability ([1]; first compound 0.253 µM): 0.435
relative viability ([1]; first compound 0.8 µM): 0.396
relative viability ([1]; first compound 2.53 µM): 0.437
relative viability ([1]; first compound 8 µM): 0.399
relative viability (TGX 221 + Lapatinib; first compound 0.08 µM): 0.926
relative viability (TGX 221 + Lapatinib; first compound 0.253 µM): 0.862
relative viability (TGX 221 + Lapatinib; first compound 0.8 µM): 0.751
relative viability (TGX 221 + Lapatinib; first compound 2.53 µM): 0.804
relative viability (TGX 221 + Lapatinib; first compound 8 µM): 0.714
relative viability ([2]; first compound 0.253 µM): 0.48
relative viability ([2]; first compound 0.8 µM): 0.425
relative viability ([2]; first compound 2.53 µM): 0.463
relative viability (Ricolinostat + Olaparib; first compound 0.253 µM): 0.44
relative viability (Ricolinostat + Olaparib; first compound 0.8 µM): 0.479
relative viability (Ricolinostat + Olaparib; first compound 2.53 µM): 0.433

COR-L 105
relative viability ([1]; first compound 0.08 µM): 0.47
relative viability ([1]; first compound 0.253 µM): 0.649
relative viability ([1]; first compound 0.8 µM): 0.348
relative viability ([1]; first compound 2.53 µM): 0.401
relative viability ([1]; first compound 8 µM): 0.402
relative viability (TGX 221 + Lapatinib; first compound 0.08 µM): 0.409
relative viability (TGX 221 + Lapatinib; first compound 0.253 µM): 0.333
relative viability (TGX 221 + Lapatinib; first compound 0.8 µM): 0.394
relative viability (TGX 221 + Lapatinib; first compound 2.53 µM): 0.394
relative viability (TGX 221 + Lapatinib; first compound 8 µM): 0.325
relative viability ([2]; first compound 0.253 µM): 0.562
relative viability ([2]; first compound 0.8 µM): 0.458
relative viability ([2]; first compound 2.53 µM): 0.471
relative viability (Ricolinostat + Olaparib; first compound 0.08 µM): 0.61
relative viability (Ricolinostat + Olaparib; first compound 0.253 µM): 0.686
relative viability (Ricolinostat + Olaparib; first compound 0.8 µM): 0.797
relative viability (Ricolinostat + Olaparib; first compound 2.53 µM): 0.962

COR-L23
relative viability ([1]; first compound 0.08 µM): 0.383
relative viability ([1]; first compound 0.253 µM): 0.467
relative viability ([1]; first compound 0.8 µM): 0.464
relative viability ([1]; first compound 2.53 µM): 0.467
relative viability ([1]; first compound 8 µM): 0.372
relative viability (TGX 221 + Lapatinib; first compound 0.08 µM): 0.886
relative viability (TGX 221 + Lapatinib; first compound 0.253 µM): 0.923
relative viability (TGX 221 + Lapatinib; first compound 0.8 µM): 1.02
relative viability (TGX 221 + Lapatinib; first compound 2.53 µM): 1.11
relative viability (TGX 221 + Lapatinib; first compound 8 µM): 0.938
relative viability ([2]; first compound 0.08 µM): 0.363
relative viability ([2]; first compound 0.253 µM): 0.379
relative viability ([2]; first compound 0.8 µM): 0.402
relative viability ([2]; first compound 2.53 µM): 0.227
relative viability (Ricolinostat + Olaparib; first compound 0.08 µM): 0.247
relative viability (Ricolinostat + Olaparib; first compound 0.253 µM): 0.315
relative viability (Ricolinostat + Olaparib; first compound 0.8 µM): 0.267
relative viability (Ricolinostat + Olaparib; first compound 2.53 µM): 0.168

LXF-289
relative viability ([1]; first compound 0.08 µM): 0.491
relative viability ([1]; first compound 0.253 µM): 0.538
relative viability ([1]; first compound 0.8 µM): 0.553
relative viability ([1]; first compound 2.53 µM): 0.507
relative viability ([1]; first compound 8 µM): 0.485
relative viability (TGX 221 + Lapatinib; first compound 0.08 µM): 0.933
relative viability (TGX 221 + Lapatinib; first compound 0.253 µM): 0.889
relative viability (TGX 221 + Lapatinib; first compound 0.8 µM): 0.955
relative viability (TGX 221 + Lapatinib; first compound 2.53 µM): 0.904
relative viability (TGX 221 + Lapatinib; first compound 8 µM): 0.885
relative viability ([2]; first compound 0.08 µM): 0.495
relative viability ([2]; first compound 0.253 µM): 0.463
relative viability ([2]; first compound 0.8 µM): 0.538
relative viability ([2]; first compound 2.53 µM): 0.529
relative viability (Ricolinostat + Olaparib; first compound 0.08 µM): 1.04
relative viability (Ricolinostat + Olaparib; first compound 0.253 µM): 1.12
relative viability (Ricolinostat + Olaparib; first compound 0.8 µM): 1.04
relative viability (Ricolinostat + Olaparib; first compound 2.53 µM): 1.01

PC-14
relative viability ([1]; first compound 0.08 µM): 0.489
relative viability ([1]; first compound 0.253 µM): 0.676
relative viability ([1]; first compound 0.8 µM): 0.561
relative viability ([1]; first compound 2.53 µM): 0.555
relative viability ([1]; first compound 8 µM): 0.355
relative viability (TGX 221 + Lapatinib; first compound 0.08 µM): 0.334
relative viability (TGX 221 + Lapatinib; first compound 0.253 µM): 0.269
relative viability (TGX 221 + Lapatinib; first compound 0.8 µM): 0.289
relative viability (TGX 221 + Lapatinib; first compound 2.53 µM): 0.28
relative viability (TGX 221 + Lapatinib; first compound 8 µM): 0.26
relative viability ([2]; first compound 0.08 µM): 0.364
relative viability ([2]; first compound 0.253 µM): 0.532
relative viability ([2]; first compound 0.8 µM): 0.477
relative viability ([2]; first compound 2.53 µM): 0.37
relative viability (Ricolinostat + Olaparib; first compound 0.08 µM): 0.265
relative viability (Ricolinostat + Olaparib; first compound 0.253 µM): 0.257
relative viability (Ricolinostat + Olaparib; first compound 0.8 µM): 0.267
relative viability (Ricolinostat + Olaparib; first compound 2.53 µM): 0.199

EKVX
relative viability ([1]; first compound 0.08 µM): 0.226
relative viability ([1]; first compound 0.253 µM): 0.259
relative viability ([1]; first compound 0.8 µM): 0.233
relative viability ([1]; first compound 2.53 µM): 0.221
relative viability ([1]; first compound 8 µM): 0.216
relative viability (TGX 221 + Lapatinib; first compound 0.08 µM): 0.231
relative viability (TGX 221 + Lapatinib; first compound 0.253 µM): 0.194
relative viability (TGX 221 + Lapatinib; first compound 0.8 µM): 0.213
relative viability (TGX 221 + Lapatinib; first compound 2.53 µM): 0.182
relative viability (TGX 221 + Lapatinib; first compound 8 µM): 0.19
relative viability ([2]; first compound 0.08 µM): 0.201
relative viability ([2]; first compound 0.253 µM): 0.251
relative viability ([2]; first compound 2.53 µM): 0.222
relative viability (Ricolinostat + Olaparib; first compound 0.08 µM): 0.638
relative viability (Ricolinostat + Olaparib; first compound 0.253 µM): 0.897
relative viability (Ricolinostat + Olaparib; first compound 0.8 µM): 0.853
relative viability (Ricolinostat + Olaparib; first compound 2.53 µM): 0.836

NCI-H322M
relative viability ([1]; first compound 0.08 µM): 0.69
relative viability ([1]; first compound 0.253 µM): 0.751
relative viability ([1]; first compound 0.8 µM): 0.776
relative viability ([1]; first compound 2.53 µM): 0.871
relative viability ([1]; first compound 8 µM): 0.865
relative viability (TGX 221 + Lapatinib; first compound 0.08 µM): 0.567
relative viability (TGX 221 + Lapatinib; first compound 0.253 µM): 0.6
relative viability (TGX 221 + Lapatinib; first compound 0.8 µM): 0.547
relative viability (TGX 221 + Lapatinib; first compound 2.53 µM): 0.562
relative viability (TGX 221 + Lapatinib; first compound 8 µM): 0.67
relative viability ([2]; first compound 0.253 µM): 0.839
relative viability ([2]; first compound 0.8 µM): 0.767
relative viability ([2]; first compound 2.53 µM): 0.761
relative viability (Ricolinostat + Olaparib; first compound 0.08 µM): 0.664
relative viability (Ricolinostat + Olaparib; first compound 0.253 µM): 0.879
relative viability (Ricolinostat + Olaparib; first compound 0.8 µM): 0.807
relative viability (Ricolinostat + Olaparib; first compound 2.53 µM): 0.907

NCI-H520
relative viability ([1]; first compound 0.08 µM): 0.254
relative viability ([1]; first compound 0.253 µM): 0.535
relative viability ([1]; first compound 0.8 µM): 0.757
relative viability ([1]; first compound 2.53 µM): 0.542
relative viability ([1]; first compound 8 µM): 0.467
relative viability (TGX 221 + Lapatinib; first compound 0.08 µM): 0.724
relative viability (TGX 221 + Lapatinib; first compound 0.253 µM): 0.562
relative viability (TGX 221 + Lapatinib; first compound 0.8 µM): 0.824
relative viability (TGX 221 + Lapatinib; first compound 2.53 µM): 0.671
relative viability (TGX 221 + Lapatinib; first compound 8 µM): 0.516
relative viability ([2]; first compound 0.253 µM): 0.732
relative viability ([2]; first compound 0.8 µM): 0.578
relative viability ([2]; first compound 2.53 µM): 0.498
relative viability (Ricolinostat + Olaparib; first compound 0.253 µM): 0.305
relative viability (Ricolinostat + Olaparib; first compound 0.8 µM): 0.343
relative viability (Ricolinostat + Olaparib; first compound 2.53 µM): 0.271

LC-2-ad
relative viability ([1]; first compound 0.08 µM): 0.518
relative viability ([1]; first compound 0.253 µM): 0.657
relative viability ([1]; first compound 0.8 µM): 0.608
relative viability ([1]; first compound 2.53 µM): 0.576
relative viability ([1]; first compound 8 µM): 0.551
relative viability (TGX 221 + Lapatinib; first compound 0.08 µM): 0.943
relative viability (TGX 221 + Lapatinib; first compound 0.8 µM): 0.972
relative viability (TGX 221 + Lapatinib; first compound 2.53 µM): 1.01
relative viability (TGX 221 + Lapatinib; first compound 8 µM): 0.978
relative viability ([2]; first compound 0.08 µM): 0.47
relative viability ([2]; first compound 0.253 µM): 0.621
relative viability ([2]; first compound 0.8 µM): 0.5
relative viability ([2]; first compound 2.53 µM): 0.44
relative viability (Ricolinostat + Olaparib; first compound 0.08 µM): 0.699
relative viability (Ricolinostat + Olaparib; first compound 0.253 µM): 0.639
relative viability (Ricolinostat + Olaparib; first compound 0.8 µM): 0.665
relative viability (Ricolinostat + Olaparib; first compound 2.53 µM): 0.285

NCI-H596
relative viability ([1]; first compound 0.08 µM): 0.629
relative viability ([1]; first compound 0.253 µM): 0.695
relative viability ([1]; first compound 0.8 µM): 0.741
relative viability ([1]; first compound 2.53 µM): 0.724
relative viability ([1]; first compound 8 µM): 0.571
relative viability (TGX 221 + Lapatinib; first compound 0.08 µM): 1.13
relative viability (TGX 221 + Lapatinib; first compound 0.253 µM): 1.09
relative viability (TGX 221 + Lapatinib; first compound 0.8 µM): 1.03
relative viability (TGX 221 + Lapatinib; first compound 2.53 µM): 0.993
relative viability (TGX 221 + Lapatinib; first compound 8 µM): 0.958
relative viability ([2]; first compound 0.08 µM): 0.836
relative viability ([2]; first compound 0.253 µM): 0.749
relative viability ([2]; first compound 0.8 µM): 0.7
relative viability ([2]; first compound 2.53 µM): 0.694
relative viability (Ricolinostat + Olaparib; first compound 0.08 µM): 0.699
relative viability (Ricolinostat + Olaparib; first compound 0.253 µM): 0.676
relative viability (Ricolinostat + Olaparib; first compound 0.8 µM): 0.693
relative viability (Ricolinostat + Olaparib; first compound 2.53 µM): 0.526
